One data set deals with HIV-1 K103N, Y181C (A17). Put plainly: HIV-1 K103N, Y181C (A17) replication in PBMCs. In kind it is cell-based. The text has this:
In another embodiment of the present disclosure compounds are provided which inhibit the replication of HIV strains resistant to NNRTIs. Compounds in this disclosure inhibit, A17, an HIV-1 virus with mutations in the RT non-nucleoside binding pocket, K103N and Y181C, in a dose-dependent susceptibility testing manner.
The asparagine variation at residue 103 and the cysteine variation at residue 181 are known to inhibit the activity of the NNRTI's.
Evaluation Dihydropyrimidines vs. HIV-1Ba-L and HIV-1 K103N, Y181C in PBMCs

Data set [1] addresses T1, recombinant HIVNL4-3 heterodimeric (p66/p51) Reverse Transcriptase (Human immunodeficiency virus type 1 group M subtype B, UniProt P12497).
T1 construct: Purified recombinant HIVNL4-3 heterodimeric (p66/p51) Reverse Transcriptase (RT)
Put plainly: Biochemical reverse transcriptase assay. On the set-up: species or system HIV-1. The following applies: 5'LTR template/primer. On the procedure:
Enantiomers of Example 34 were created and utilized to assess the activity of the compounds in a biochemical reverse transcriptase assay. Purified recombinant HIVNL4-3 heterodimeric (p66/p51) Reverse Transcriptase (RT) was used in experiments. RT activity was determined by the incorporation of radiolabeled deoxyribonucleotides into the newly synthesized DNA strand. The standard RT reaction mixture contained a synthetic homopolymeric template/primer [poly(rA)/oligo(dT)] or in vitro transcribed viral RNA derived from the HIV-1NL4-3 5′-LTR region (nucleotide residues 454 to 652) and a primer complementary to the primer binding site (PBS, nucleotide residues 636 to 652), radiolabeled deoxyribonucleotide, dNTPs and RT. The reaction was carried out in a volume of 40 μl containing 50 mM Tris HCl, pH 7.8, 50 mM KCl, 5 mM MgCl2, 1 mM DTT, 50 μM each of dATP, dCTP, dGTP, 50 nM dTTP, 1 μCi of [^3H] dTTP (70-90 Ci/mM) and 5 nM template/primer. The reaction was initiated by the addition of 10 nM RT. For compound screening, serially diluted test articles were added to the reaction followed by the addition of RT. The reaction mixture was incubated at 37° C. for 1 h, then quenched by the addition of ice-cold trichloroacetic acid (TCA) to the final concentration of 10%. The plate was incubated at 4° C. for 1 h to precipitate the synthesized DNA, then rinsed 3-times with 10% TCA and 1 time with 70% ethanol. After addition of 25 μl scintillation fluid to completely dried wells, radioactivity is counted by MicroBeta scintillation counter. The reduction of radioactivity represents the potency of compound inhibition.

A short description of data set [2]: Cytotoxicity by MTS staining in PBMCs. In kind it is cell-based. The settings on record: human, peripheral blood mononuclear cells (PBMC), read-out: TC50. The procedure: (§1) Cytotoxicity was assessed by MTS staining. At assay end-point, PBMC were stained with the addition of […] of the soluble tetrazolium-based dye MTS to determine cell viability and quantify compound toxicity. The plates were incubated 4 to 6 hrs at 37° C. Following incubation, the activity was assessed by reading absorbance values at 490/650 nm.

The test system of data set [3] is HIV-1Ba-L. In words: HIV-1Ba-L replication in PBMCs (supernatant RT end-point). A digest of the protocol:
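Pooled PHA-stimulated human PBMCs (5×10^4 cells/well) were infected with HIV-1Ba-L at MOI 0.1 with nine ½-log compound dilutions and cultured seven days at 37° C. Supernatant RT activity was measured by ^3H-TTP incorporation on poly rA:oligo dT (60 minutes, 37° C) and counted by scintillation.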

Data set [4] can be described thus: Cytotoxicity by MTS staining in uninfected MAGI-CCR5 cells. The following applies: human, read-out: TC50. In kind it is cell-based. A digest of the protocol: (§2)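 Uninfected MAGI-CCR5 cells (HeLa-CD4-LTR-β-gal derived, expressing CD4/CCR5) plated at 1.0×10^4 cells/well the day before, then exposed to compounds at six concentrations in triplicate alongside parallel infected assays. Viability read by MTS staining.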

The test system of data set [5] is HIV-1Ba-L. In words: Inhibition of virus replication in MAGI-CCR5 cells (β-galactosidase reporter). In kind it is cell-based. The settings on record: HIV-1Ba-L in MAGI-CCR5 cells; for IC50: 48 hours, β-galactosidase reporter expression, read-out: IC50. A digest of the protocol:
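HeLa-derived MAGI-CCR5 cells (high CD4/CCR5, HIV-1 LTR-driven β-galactosidase) plated at 1.0×10^4 cells/well the day before infection with HIV-1Ba-L. Compounds tested at six concentrations in triplicate, with parallel uninfected plates for cytotoxicity.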

The subject of data set [6] is peripheral blood mononuclear cells (PBMC). In words: Cytotoxicity by MTS staining in PBMCs. In kind it is cell-based. The settings on record: read-out: TC50 (the source's name). The procedure:
as §1

In another data set the test system is MAGI-CCR5 cells. In words: Cytotoxicity by MTS staining in uninfected MAGI-CCR5 cells. In kind it is cell-based. The settings on record: 48 hours, read-out: TC50 (the source's name). The method, boiled down: as §2
Setting [7] is: Human immunodeficiency virus 1, PBMC.
[8] abbreviates: Virus A17 (K103N, Y181C) in PBMCs.
[9] abbreviates: 5'LTR/dPR IC50, HIV RT biochemical assay.
[10] abbreviates: Virus Ba-L in PBMCs (Ba-L vs A17 comparison).
Where [11] appears, read: Human immunodeficiency virus 1, PBMC, 168 h.
[12] abbreviates: HIV-1Ba-L in PBMCs, seven days, RT end-point.
Where [13] appears, read: Human immunodeficiency virus 1, BAL, PBMC.

Molecules are shown by their SMILES. Several values for one entry are separate records, joined by “and”; a condition that tells them apart may be missing. Equal values may be shown once. Read-outs that look alike come from different tables or passages of the source.

Take `Cc1cc(C#N)cc(C)c1Oc1nc(Nc2ccc(C#N)cc2)nc(N)c1Br` [TMC-125, Etravirine, reference compound]: the IC50 in the data set on HIV-1 K103N, Y181C (A17) (setting [7]) worked out at 10 nM; in data set [1] (setting [9]), 190 nM; in the data set with HIV-1Ba-L [5] (Human immunodeficiency virus 1), 3 nM. The “TI (TC50/IC50)” value in the data set with HIV-1 K103N, Y181C (A17) (setting [8]) is recorded as greater than 101.0; in the data set on HIV-1Ba-L [3] (HIV-1Ba-L in PBMCs) it was greater than 325.0; in the data set with HIV-1Ba-L [3] (setting [10]), greater than 402.0; in the data set with HIV-1Ba-L [5] it was >37,500.0. The CC50 at 7 days in data set [2] (A17 line of the table), in data set [2] (Ba-L line of the table) and in data set [2] (MTS staining) was greater than 1000 nM in each case. In addition, the CC50 at 48 h in data set [4] was greater than 100000 nM.

Turning to `CC1=C(c2nc(-c3ccc(C#N)cc3)cs2)C(c2cccc(O)c2)NC(=O)N1` (single isomer, unassigned) [Example 34 (enantiomer)], the values for the IC50 (in data set [1] (setting [9]); with HIV-1Ba-L [3] (setting [11])) were greater than 100000 nM and 5000 to 100000 nM, respectively. The CC50 at 7 days in data set [2] (MTS staining) was no less than 100000 nM. The “TI (TC50/IC50)” value in the data set on HIV-1Ba-L [3] (HIV-1Ba-L in PBMCs) is “D (D < 10.0)”.

In the case of `Cc1cn([C@H]2C[C@H](N=[N+]=[N-])[C@@H](CO)O2)c(=O)[nH]c1=O` [AZT, reference compound], the “TI (TC50/IC50)” value in the data set on HIV-1 K103N, Y181C (A17) (setting [8]) is reported as greater than 629.0; in the data set on HIV-1Ba-L [3] (HIV-1Ba-L in PBMCs) it was greater than 54.9; with HIV-1Ba-L [3] (setting [10]), greater than 88.6; with HIV-1Ba-L [5], greater than 36.5. In addition, the IC50 with HIV-1 K103N, Y181C (A17) (Virus A17 (K103N, Y181C) in PBMCs, read-out: IC50) was found to be 1.6 nM; in the data set with HIV-1Ba-L [3] (setting [12]), 20 nM; in the data set on HIV-1Ba-L [3] (setting [10]) it was 11 nM; in the data set on HIV-1Ba-L [5] it was 80 nM. The CC50 (in data set [6] (A17 line of the table); in data set [6] (Ba-L line of the table); in data set [6] (MTS staining); with MAGI-CCR5 cells) was greater than 1000 nM throughout.

For `Cc1cn([C@H]2C[C@H](N=[N+]=[N-])[C@@H](COP(=O)(O)OP(=O)(O)OP(=O)(O)O)O2)c(=O)[nH]c1=O` [AZT-TP], the IC50 in data set [1] (HIV RT biochemical assay, read-out: 5'LTR/dPR IC50) was 9 nM and 10 nM.

As to `CC1=C(c2nc(-c3ccc(C#N)cc3C)cs2)C(c2cccnc2F)NC(=O)N1` (stereo not shown) [Example 83], the CC50 in the data set on MAGI-CCR5 cells is less than 50000 nM. Further, in the data set with HIV-1Ba-L [5], the “TI (TC50/IC50)” value was “B (B < 100.0-50.0)” and the IC50 is less than 1000 nM.

As for `Cc1ccnc2c1NC(=O)c1cccnc1N2C1CC1` [Nevirapine], the IC50 in data set [1] (setting [9]) is 290 nM and 190 nM.

Turning to `CC1=C(c2nc(-c3ccc(C#N)cc3)cs2)C(c2ccc(F)nc2)NC(=O)N1` (stereo not shown) [Example 19], the IC50 with HIV-1 K103N, Y181C (A17) (setting [7]) was greater than 100000 nM; with HIV-1Ba-L [3] (setting [13]), less than 1000 nM; with HIV-1Ba-L [3] (setting [11]), less than 1000 nM; in the data set on HIV-1Ba-L [5] (Human immunodeficiency virus 1), 1000 to 5000 nM. Besides, the “TI (TC50/IC50)” value is recorded as “D (D < 10.0)” in the data set with HIV-1 K103N, Y181C (A17) (setting [8]); “A (A = TI (TC50/IC50) ≧100.0)” in the data set on HIV-1Ba-L [3] (HIV-1Ba-L in PBMCs); “A (A = TI (TC50/IC50) ≧ 100.0)” with HIV-1Ba-L [3] (setting [10]); “B (B < 100.0-50.0)” in the data set with HIV-1Ba-L [5]. In addition, the “effect of RT changes K103N and Y181C on anti-viral activity” value in the data set on HIV-1 K103N, Y181C (A17) (virus with K103 to Asparagine and Y181 to cysteine) is listed as “inhibit the anti-viral activity”. Besides, the CC50 at 7 days in data set [2] (A17 line of the table), in data set [2] (Ba-L line of the table) and in data set [2] (MTS staining) was no less than 100000 nM in each case. Also, the CC50 at 48 h in data set [4] was no less than 100000 nM.

Consider `CC1=C(c2nc(-c3ccc(C#N)cc3)cs2)C(c2cccc(O)c2)NC(=O)N1` (stereo not shown) [Example 34], for which the IC50 (in data set [1] (setting [9]); with HIV-1Ba-L [3] (setting [11]); with HIV-1Ba-L [5] (Human immunodeficiency virus 1)) was less than 1000 nM throughout. The CC50 at 7 days in data set [2] (MTS staining) fell in the range of 50000 to 100000 nM. For the same compound, the “TI (TC50/IC50)” value is given as “A (A = TI (TC50/IC50) ≧100.0)” with HIV-1Ba-L [3] (HIV-1Ba-L in PBMCs) and “A (A = TI (TC50/IC50) ≧ 100.0)” in the data set with HIV-1Ba-L [5]. Besides, the CC50 at 48 h in data set [4] is no less than 100000 nM.

In the case of `CC1=C(c2nc(-c3ccc(C#N)cc3C)cs2)C(c2cccnc2F)NC(=O)N1` (stereo not shown) [Example 86], the IC50 with HIV-1 K103N, Y181C (A17) (setting [7]) was 5000 to 100000 nM; with HIV-1Ba-L [3] (setting [13]) it was less than 1000 nM; with HIV-1Ba-L [3] (setting [11]), less than 1000 nM; in the data set on HIV-1Ba-L [5] it was less than 1000 nM. Besides, the “TI (TC50/IC50)” value is reported as “D (D < 10.0)” with HIV-1 K103N, Y181C (A17) (setting [8]); “A (A = TI (TC50/IC50) ≧100.0)” in the data set with HIV-1Ba-L [3] (HIV-1Ba-L in PBMCs); “A (A = TI (TC50/IC50) ≧ 100.0)” with HIV-1Ba-L [3] (setting [10]); “A (A = TI (TC50/IC50) ≧ 100.0)” with HIV-1Ba-L [5]. Besides, the CC50 at 7 days in data set [2] (A17 line of the table), in data set [2] (Ba-L line of the table) and in data set [2] (MTS staining) was no less than 100000 nM in each case. Besides, the CC50 with MAGI-CCR5 cells was no less than 100000 nM.

Take `Cc1ccc(-c2ccc3c(c2)C=C(C(=O)Nc2ccc(C[N+](C)(C)C4CCOCC4)cc2)CCC3)cc1.[Cl-]` [TAK 779, reference compound]: the CC50 (in data set [6] (MTS staining); in the data set on MAGI-CCR5 cells) was greater than 10000 nM each time. Besides, the “TI (TC50/IC50)” value in the data set with HIV-1Ba-L [3] (HIV-1Ba-L in PBMCs) is reported as greater than 29.9; with HIV-1Ba-L [5], 2902.7. In addition, the IC50 in the data set on HIV-1Ba-L [3] (setting [12]) amounted to 350 nM; in the data set with HIV-1Ba-L [5] it was 4 nM.

The values above are taken from patent publication US9120787B2, “HIV replication inhibitors” (priority 2011, dated 2015).
